Paper PMC11839854, “Exploration of (R)-[^11C]YH168 as a PET tracer for imaging monoacylglycerol lipase in the brain: from mice to non-human primates” (European Journal of Nuclear Medicine and Molecular Imaging, 2024)
pIC50: −log10 of the molar value.

Legend:
Format in all cases: biochemical
[1] = target: T1, monoacylglycerol lipase (MAGL) (Homo sapiens, UniProt Q99685); test: enzymatic inhibition assay with human MAGL protein
T1 construct: gene MGLL
T1 sequence (Q99685 1-303): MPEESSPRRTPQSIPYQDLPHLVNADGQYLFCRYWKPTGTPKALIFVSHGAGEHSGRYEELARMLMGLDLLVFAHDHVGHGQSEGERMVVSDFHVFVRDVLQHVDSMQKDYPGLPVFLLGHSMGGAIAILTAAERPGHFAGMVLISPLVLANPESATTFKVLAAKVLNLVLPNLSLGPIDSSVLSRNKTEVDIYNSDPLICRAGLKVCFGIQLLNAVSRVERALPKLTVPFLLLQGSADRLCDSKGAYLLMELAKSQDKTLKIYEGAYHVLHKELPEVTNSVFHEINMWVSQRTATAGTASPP

[2] = target: T2, monoacylglycerol lipase (MAGL) (Macaca fascicularis, UniProt A0A2K5V664); test: enzymatic inhibition assay with cynomolgus monkey MAGL protein
T2 sequence (A0A2K5V664 1-352): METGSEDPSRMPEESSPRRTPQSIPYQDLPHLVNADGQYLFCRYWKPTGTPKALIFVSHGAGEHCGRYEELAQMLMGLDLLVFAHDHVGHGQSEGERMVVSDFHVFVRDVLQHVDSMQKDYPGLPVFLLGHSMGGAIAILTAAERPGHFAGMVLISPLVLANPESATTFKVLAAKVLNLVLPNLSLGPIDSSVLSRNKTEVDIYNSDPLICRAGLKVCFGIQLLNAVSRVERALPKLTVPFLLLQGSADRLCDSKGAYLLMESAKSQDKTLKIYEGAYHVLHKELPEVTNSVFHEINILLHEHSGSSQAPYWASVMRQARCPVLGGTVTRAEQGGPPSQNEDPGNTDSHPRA

[3] = target: T3, monoacylglycerol lipase (MAGL) (Mus musculus, UniProt O35678); test: enzymatic inhibition assay with mouse MAGL protein; supported by autoradiography and PET in wild-type vs MAGL knockout mice
T3 construct: gene Mgll
T3 sequence (O35678 1-303): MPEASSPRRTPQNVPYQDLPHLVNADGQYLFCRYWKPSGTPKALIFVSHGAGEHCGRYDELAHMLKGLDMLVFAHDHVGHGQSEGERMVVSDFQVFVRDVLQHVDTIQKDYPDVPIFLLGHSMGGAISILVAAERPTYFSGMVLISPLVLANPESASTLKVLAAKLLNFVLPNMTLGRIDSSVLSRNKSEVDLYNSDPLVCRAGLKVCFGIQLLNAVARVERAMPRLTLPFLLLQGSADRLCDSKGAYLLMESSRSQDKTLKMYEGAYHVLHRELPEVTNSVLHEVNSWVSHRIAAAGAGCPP

pIC50 [1]: 8.40
pIC50 [2]: 8.57
pIC50 [3]: 8.42
Structure (SMILES): Cc1cccc(-c2ccc(N3C[C@H](N4CCN(C(=O)c5ccco5)CC4)CC3=O)cc2)c1 [(R)-YH168]
